For series [1], the target named is T1, Jack bean (JB) urease (Canavalia ensiformis, UniProt P07374).
T1 construct: purchased Sigma-Aldrich (USA)
The series is described as follows: Urease inhibition, modified Berthelot spectrophotometric method. It is filed as biochemical. How it is done: All used material and JB urease (EC 3.5.1.5) were purchased from Sigma–Aldrich (USA). Potassium phosphate buffer (PPB) solution with concentration 100 mM and pH = 7.4 was prepared in distilled water. […] The enzymatic reactions were performed in PPB solution which reach to the 985 μL by adding urea (850 μL) and the synthesized compound (100 μL, 0–10 mg/mL). Then, urease (15 μL) was added and the concentration of liberated ammonia was measured after 60 min. The corresponding concentration of ammonia was determined by addition of the incubated solution (100 μL) to the mixture of 500 μL of solution I (5.0 g phenol and 25.0 mg sodium nitroprusside in 500 mL water) and 500 μL of solution II (2.5 g sodium hydroxide and 4.2 mL sodium hypochlorite (5% chlorine) in 500 mL water) which was incubated at 37 °C for 30 min. The absorbance was obtained by measuring indophenols. The activity of uninhibited JB urease was considered as the control activity of 100%. The inhibition assays were conducted according to this formula: I (%) = [1 − (T/C)] × 100; where I (%) is the enzyme inhibition, T (test) is the absorbance of the analyzed compounds in the presence of urease solution, and C (control) is the absorbance of the solvent in the presence of urease solution. Data were expressed as mean ± […] and run in triplicate. […] Thiourea and hydroxyurea were used as the standard inhibitors for urease.

In series [2] the target is T1, Jack bean (JB) urease. The series is described as follows: Urease kinetic study (Lineweaver–Burk plots). It is filed as biochemical.
Description: The inhibition mode and Ki value were determined by Lineweaver–Burk plots and secondary re-plotting of the mentioned plots, respectively.
All used material and JB urease (EC 3.5.1.5) were purchased from Sigma–Aldrich (USA). Potassium phosphate buffer (PPB) solution with concentration 100 mM and pH = 7.4 was prepared in distilled water. […] The enzymatic reactions were performed in PPB solution which reach to the 985 μL by adding urea (850 μL) and the synthesized compound (100 μL, 0–10 mg/mL). Then, urease (15 μL) was added and the concentration of liberated ammonia was measured after 60 min. The corresponding concentration of ammonia was determined by addition of the incubated solution (100 μL) to the mixture of 500 μL of solution I (5.0 g phenol and 25.0 mg sodium nitroprusside in 500 mL water) and 500 μL of solution II (2.5 g sodium hydroxide and 4.2 mL sodium hypochlorite (5% chlorine) in 500 mL water) which was incubated at 37 °C for 30 min. The absorbance was obtained by measuring indophenols. The activity of uninhibited JB urease was considered as the control activity of 100%. The inhibition assays were conducted according to this formula: I (%) = [1 − (T/C)] × 100; where I (%) is the enzyme inhibition, T (test) is the absorbance of the analyzed compounds in the presence of urease solution, and C (control) is the absorbance of the solvent in the presence of urease solution. Data were expressed as mean ± standard error (SD) and run in triplicate. […] Thiourea and hydroxyurea were used as the standard inhibitors for urease.
For series [3] the following is noted: no reference given; cited from earlier work.
The mark [4] stands for this setting: Jack bean urease, mean ± standard error of the mean, at least three experiments, read-out: IC50 against urease.

SMILES strings stand for the structures. Entries after “also recorded” stand apart in the source; their conditions may differ. Where two headings read alike, the source gives them in different places.

T1 sequence (P07374 whole entry, looked up): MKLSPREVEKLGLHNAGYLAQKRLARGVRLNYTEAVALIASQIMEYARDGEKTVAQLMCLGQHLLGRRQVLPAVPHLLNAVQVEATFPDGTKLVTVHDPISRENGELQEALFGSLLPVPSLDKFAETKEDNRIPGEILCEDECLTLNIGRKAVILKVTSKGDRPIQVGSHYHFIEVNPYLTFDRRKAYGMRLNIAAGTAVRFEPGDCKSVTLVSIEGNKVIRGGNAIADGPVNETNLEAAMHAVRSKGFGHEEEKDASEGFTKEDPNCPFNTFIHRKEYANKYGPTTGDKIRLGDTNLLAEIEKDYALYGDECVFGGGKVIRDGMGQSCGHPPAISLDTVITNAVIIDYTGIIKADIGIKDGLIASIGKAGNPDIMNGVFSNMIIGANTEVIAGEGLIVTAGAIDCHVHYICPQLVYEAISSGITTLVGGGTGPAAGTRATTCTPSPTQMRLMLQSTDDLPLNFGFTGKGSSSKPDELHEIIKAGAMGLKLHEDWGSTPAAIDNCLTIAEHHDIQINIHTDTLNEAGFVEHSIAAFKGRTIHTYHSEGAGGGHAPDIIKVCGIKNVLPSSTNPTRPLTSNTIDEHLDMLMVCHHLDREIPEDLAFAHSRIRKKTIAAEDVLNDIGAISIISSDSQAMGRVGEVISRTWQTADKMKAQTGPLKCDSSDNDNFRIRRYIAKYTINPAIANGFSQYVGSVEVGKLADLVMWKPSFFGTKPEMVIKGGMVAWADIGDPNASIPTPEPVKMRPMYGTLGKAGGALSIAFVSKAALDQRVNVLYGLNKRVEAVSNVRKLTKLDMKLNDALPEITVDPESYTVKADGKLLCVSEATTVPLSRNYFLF

Regarding `CN1C(=O)C(=CN/N=C/c2ccccc2)C(=O)N(C)C1=O` [Compound 7a, (E)-5-((2-benzylidenehydrazinyl)methylene)-1,3-dimethylpyrimidine-2,4,6(1H,3H,5H)-trione], the half-inhibitory concentration (IC50) at Jack bean (JB) urease [1] (setting [4]) amounted to 4430 ± 210 nM.
Same read-out and setting: in the case of `CN1C(=O)C(=CN/N=C/c2ccccc2O)C(=O)N(C)C1=O` [Compound 7b, (E)-5-((2-(2-hydroxybenzylidene)hydrazinyl)methylene)-1,3-dimethylpyrimidine-2,4,6(1H,3H,5H)-trione] it was 3090 ± 130 nM.
As to `CN1C(=O)C(=CN/N=C/c2ccc(O)cc2O)C(=O)N(C)C1=O` [Compound 7c, (E)-5-((2-(2,4-dihydroxybenzylidene)hydrazinyl)methylene)-1,3-dimethylpyrimidine-2,4,6(1H,3H,5H)-trione], the IC50 at Jack bean (JB) urease [1] (setting [4]) amounted to 1200 ± 50 nM.
As for `COc1cc(/C=N/NC=C2C(=O)N(C)C(=O)N(C)C2=O)cc(OC)c1OC` [Compound 7d, (E)-1,3-dimethyl-5-((2-(3,4,5-trimethoxybenzylidene)hydrazinyl)methylene)pyrimidine-2,4,6(1H,3H,5H)-trione], the half-inhibitory concentration (IC50) at Jack bean (JB) urease [1] (setting [4]) worked out at 2530 ± 110 nM.
On the same count and under the same terms, with `CN1C(=O)C(=CN/N=C/c2cccc(Oc3ccccc3)c2)C(=O)N(C)C1=O` [Compound 7e, (E)-1,3-dimethyl-5-((2-(3-phenoxybenzylidene)hydrazinyl)methylene)pyrimidine-2,4,6(1H,3H,5H)-trione] the figure was 2850 ± 230 nM; with `CN1C(=O)C(=CN/N=C/c2ccc(Cl)cc2)C(=O)N(C)C1=O` [Compound 7f, (E)-5-((2-(4-chlorobenzylidene)hydrazinyl)methylene)-1,3-dimethylpyrimidine-2,4,6(1H,3H,5H)-trione], 3560 ± 160 nM.
On to `CN1C(=O)C(=CN/N=C/c2cccc(Br)c2)C(=O)N(C)C1=O` [Compound 7g, (E)-5-((2-(3-bromobenzylidene)hydrazinyl)methylene)-1,3-dimethylpyrimidine-2,4,6(1H,3H,5H)-trione], for which the 50% inhibitory concentration (IC50) at Jack bean (JB) urease [1] (setting [4]) worked out at 3620 ± 190 nM.
On to `CN1C(=O)C(=CN/N=C/c2ccccc2[N+](=O)[O-])C(=O)N(C)C1=O` [Compound 7h, (E)-1,3-dimethyl-5-((2-(2-nitrobenzylidene)hydrazinyl)methylene)pyrimidine-2,4,6(1H,3H,5H)-trione], for which the melting point lay in the range of 178 to 180 °C. Besides, affinity on Jack bean (JB) urease [2] was put at a Ki of 820 nM. For the same molecule, the inhibition mode entry against Jack bean (JB) urease [2] (Lineweaver–Burk plot) is listed as “mixed-type inhibitor; also recorded: mix-mode inhibitor”. This molecule also showed a concentration for half-maximal inhibition (IC50) at Jack bean (JB) urease [1] of 610 ± 60 nM. In addition, on Jack bean (JB) urease [1] (ratio of urease IC50 values), the “activity fold superior to parent phenyl derivative 7a” value came out at 7.2 fold and the “times more potent than thiourea” value is reported as 37.7 times.
For the molecule `CN1C(=O)C(=CN/N=C/c2ccc([N+](=O)[O-])cc2)C(=O)N(C)C1=O` [Compound 7i, (E)-1,3-dimethyl-5-((2-(4-nitrobenzylidene)hydrazinyl)methylene)pyrimidine-2,4,6(1H,3H,5H)-trione], the 50% inhibitory concentration (IC50) at Jack bean (JB) urease [1] (setting [4]) came to 1310 ± 90 nM. Besides, the “decrease of inhibitory activity relative to 2-nitro derivative 7h” value on Jack bean (JB) urease [1] (urease IC50 compared with 7h) is “about two”.
In the case of `CN1C(=O)C(=CN/N=C/c2cccc(Cl)c2Cl)C(=O)N(C)C1=O` [Compound 7j, (E)-5-((2-(2,3-dichlorobenzylidene)hydrazinyl)methylene)-1,3-dimethylpyrimidine-2,4,6(1H,3H,5H)-trione], at Jack bean (JB) urease [1] (setting [4]), the IC50 was found to be 4520 ± 310 nM.
On the same count and under the same terms, in the case of `CN1C(=O)C(=CN/N=C/c2cc([N+](=O)[O-])ccc2Cl)C(=O)N(C)C1=O` [Compound 7k, (E)-5-((2-(2-chloro-5-nitrobenzylidene)hydrazinyl)methylene)-1,3-dimethylpyrimidine 2,4,6(1H,3H,5H)-trione] it was 3940 ± 250 nM.
With `CN1C(=O)C(=CN/N=C/c2cc(Cl)ccc2[N+](=O)[O-])C(=O)N(C)C1=O` [Compound 7l, (E)-5-((2-(5-chloro-2-nitrobenzylidene)hydrazinyl)methylene)-1,3-dimethylpyrimidine-2,4,6(1H,3H,5H)-trione], the IC50 at Jack bean (JB) urease [1] (setting [4]) was determined as 1340 ± 120 nM.
With `CN1C(=O)C(=CN/N=C/c2cccs2)C(=O)N(C)C1=O` [Compound 7m, (E)-1,3-dimethyl-5-((2-(thiophen-2-ylmethylene)hydrazinyl)methylene)pyrimidine2,4,6(1H,3H,5H)-trione], the IC50 on Jack bean (JB) urease [1] (setting [4]) stood at 860 ± 80 nM.
With `CN1C(=O)C(=CN/N=C/c2ccc(Cl)s2)C(=O)N(C)C1=O` [Compound 7n, (E)-5-((2-((5-chlorothiophen-2-yl)methylene)hydrazinyl)methylene)-1,3-dimethylpyrimidine-2,4,6(1H,3H,5H)-trione], the IC50 at Jack bean (JB) urease [1] (setting [4]) was 4560 ± 180 nM.
`CN1C(=O)C(=CN/N=C/c2cccc3ccccc23)C(=O)N(C)C1=O` [Compound 7o, (E)-1,3-dimethyl-5-((2-(naphthalen-1-ylmethylene)hydrazinyl)methylene)pyrimidine-2,4,6(1H,3H,5H)-trione] gave a concentration for half-maximal inhibition (IC50) on Jack bean (JB) urease [1] of 1940 ± 220 nM.
Consider `NC(=O)NO` [Hydroxyurea, reference compound], for which, in series [3], the experimental solubility was 100 mg/mL. In addition, the half-inhibitory concentration (IC50) on Jack bean (JB) urease [1] (setting [4]) stood at 100000 ± 150 nM.
Take `NC(N)=S` [Thiourea, reference compound]: the IC50 at Jack bean (JB) urease [1] (setting [4]) worked out at 23000 ± 1700 nM.

Broadly, the IC50 is the midpoint of a concentration-inhibition curve. As usually defined, the melting point is the temperature of the solid-liquid transition. Usually Ki stands for a dissociation constant, usually derived from enzyme kinetics or from competition with a known ligand.

Source of the values: paper PMC8134453.
